Measurements taken from the NIST ThermoML archive (doi:10.1016/j.jct.2012.10.028).
± gives the expanded uncertainty stated by the source.

How the values were obtained:
[1] = 101.33 kPa, Liquid, Vibrating tube method
[2] = refractive index (Na D-line) (dimensionless); conditions: 298.2 K; 101.33 kPa; Liquid; Standard Abbe refractometry

| Structure (SMILES) | mass density ([1]; 298.2 K) | refractive index [2] | mass density ([1]; 293.15 K) |
| --- | --- | --- | --- |
| CCCCC(CC)CO (centres undefined) [2-ethyl-1-hexanol] | 830.57 ± 0.31 kg/m3 | 1.4293 ± 0.0005 | – |
| CC(=O)OCC(C)C [2-methylpropyl ethanoate] | – | 1.3878 ± 0.0005 | 866.58 ± 0.31 kg/m3 |
| O=C1CCCCC1 [cyclohexanone] | 943.04 ± 0.32 kg/m3 | 1.4503 ± 0.0005 | – |
| CCCCCCCCO [octan-1-ol] | 824.1 ± 0.31 kg/m3 | 1.427 ± 0.0005 | – |
| O [water] | – | 1.3325 ± 0.0005 | – |
